# Reference: ChEMBL document CHEMBL4689842, “EUbOPEN Chemogenomics Library wave 1” (2021)
# How the values were obtained:
# Type in all cases: toxicity, cell-based
# HEK-293T = test: Incucyte cell viability with HEK293T; settings: human, 10 µM, compound concentration 10 uM
# Fibroblast = test: Incucyte cell viability with human fibroblast; settings: 10 µM, compound concentration 10 uM
# U2OS = test: Incucyte cell viability with U2OS; settings: human, 10 µM, compound concentration 10 uM
# [1] = 0 h, replicate number 2, timepoint 0 hours
# [2] = 6 h, replicate number 1, timepoint 6 hours
# [3] = 12 h, replicate number 1, timepoint 12 hours
# [4] = 18 h, replicate number 1, timepoint 18 hours
# [5] = 24 h, replicate number 1, timepoint 24 hours
# [6] = 0 h, replicate number 1, timepoint 0 hours
# [7] = 6 h, replicate number 2, timepoint 6 hours
# [8] = 12 h, replicate number 2, timepoint 12 hours
# [9] = 18 h, replicate number 2, timepoint 18 hours
# [10] = 24 h, replicate number 2, timepoint 24 hours
# Further: filed as whole numbers so only -1 and 0 and 1 occur.
Structure (SMILES),Growth Rate (HEK-293T; [1]),Growth Rate (HEK-293T; [2]),Growth Rate (HEK-293T; [3]),Growth Rate (HEK-293T; [4]),Growth Rate (HEK-293T; [5]),Growth Rate (Fibroblast; [6]),Growth Rate (Fibroblast; [2]),Growth Rate (Fibroblast; [3]),Growth Rate (Fibroblast; [4]),Growth Rate (Fibroblast; [5]),Growth Rate (U2OS; [6]),Growth Rate (U2OS; [7]),Growth Rate (U2OS; [3]),Growth Rate (U2OS; [8]),Growth Rate (U2OS; [4]),Growth Rate (U2OS; [9]),Growth Rate (U2OS; [5]),Growth Rate (HEK-293T; [7]),Growth Rate (Fibroblast; [8]),Growth Rate (HEK-293T; [6]),other results
N#Cc1c[nH]c2c(C(=O)N3CCN(CCc4ccc(F)cc4)CC3)cccc12 [PRUVANSERIN],0,0,0,0,0,0,0,0,0,0,1,0,1,0,0,1,0,,,,
Cc1nc(-c2ccc(C(F)(F)F)cc2)sc1COc1ccc([C@H](CC(=O)O)c2ccon2)cc1,0,0,0,0,0,0,0,1,1,0,,0,0,1,0,1,0,1,0,,Growth Rate (Fibroblast; [9]): 0; Growth Rate (U2OS; [1]): 0; Growth Rate (U2OS; [10]): 1
CC1(C)C(=O)C(C)(C)c2cc(C(=O)Nc3ccc(C(=O)O)cc3)ccc21,,,1,1,1,0,0,0,0,0,0,1,0,1,1,,1,1,,0,Growth Rate (Fibroblast; [1]): 1; Growth Rate (Fibroblast; [9]): 1
CN(C)C(=O)c1cc2cnc(Nc3ccc(N4CCNCC4)cn3)nc2n1C1CCCC1 [RIBOCICLIB],1,1,,1,1,0,,,,1,0,1,0,1,0,1,0,0,0,0,Growth Rate (HEK-293T; [8]): 0; Growth Rate (HEK-293T; [9]): 0; Growth Rate (HEK-293T; [10]): 0; Growth Rate (Fibroblast; [7]): 0; Growth Rate (Fibroblast; [9]): 1; Growth Rate (U2OS; [2]): 0; Growth Rate (U2OS; [10]): 1
Cc1nnn(-c2ccc(-c3ccc(C4(C(=O)O)CC4)cc3)cc2)c1NC(=O)O[C@H](C)c1ccccc1,,0,0,0,0,0,,,,,0,,1,,1,,1,,,0,Growth Rate (HEK-293T; [8]): 1; Growth Rate (HEK-293T; [9]): 1
CCCCCNC(=O)NS(=O)(=O)c1cc([N+](=O)[O-])ccc1NC1CCCCC1,0,0,0,0,1,0,,1,1,1,0,1,1,,0,1,1,1,0,1,Growth Rate (HEK-293T; [8]): 1; Growth Rate (HEK-293T; [10]): 0; Growth Rate (Fibroblast; [1]): 1; Growth Rate (Fibroblast; [7]): 0
CC(=O)c1c(NS(C)(=O)=O)c2cc(-c3ccc(Cl)cc3)c(-c3ccc(Cl)cc3Cl)nc2n(C)c1=O [MRL-CB1-NC],0,0,0,0,0,0,0,0,0,0,0,1,1,,1,,1,,,1,Growth Rate (HEK-293T; [8]): 1; Growth Rate (U2OS; [1]): 1
NS(=O)(=O)c1c(Cl)ccc(NC(=O)Nc2cccc(Cl)c2Cl)c1O,0,1,1,0,0,0,,1,1,1,0,,0,,1,,1,,0,1,Growth Rate (HEK-293T; [9]): 1; Growth Rate (HEK-293T; [10]): 1; Growth Rate (Fibroblast; [1]): 1; Growth Rate (Fibroblast; [7]): 0; Growth Rate (Fibroblast; [9]): 0; Growth Rate (Fibroblast; [10]): 0; Growth Rate (U2OS; [10]): 0
